In patent publication US20170065564A1, “BIS-CYCLIC GUANIDINE COMPOUND COMPOSITIONS, METHODS OF USE AND TREATMENT THEREOF” (University of South Florida, priority 2014, published 2017):

How the values were obtained:
Klebsiella pneumoniae = test: MIC micro broth dilution assay; format: cell-based; parameters: key to stacked score activity, 100/MIC, K: stacked score = 100/MIC; settings: K. pneumoniae
Protocol: (§1) For this study we used a representative panel of multi-drug resistant clinical ESKAPE pathogen isolates (Supplemental Table S6).^42 43 3a, 44 45 Gram-positive organisms were grown in tryptic soy broth media (TSB), whilst Gram-negative organisms were grown in lysogeny Broth (LB), as described by us previously. ^43 MIC and MBC determination assays.
(§2) Broth cultures of ESKAPE strains were grown overnight before being diluted 1 in 1,000 in fresh media. Sterile 96-well plates were loaded with culture and compounds (in DMF) were added at decreasing concentrations to equal a total volume of 200 μl per well. Care was taken to not add more than 2.0% DMF to any well. Plates were then incubated at 37° C., and MICs determined after 24 hours by visual inspection for a lack of turbidity in wells. All assays were performed in triplicate with identical results obtained. For both the scaffold ranking and positional scanning samples, relative broad-spectrum activity was determined via stacked scores: […]

Staphylococcus aureus = test: MIC micro broth dilution assay; format: cell-based; parameters: key to stacked score activity, 100/MIC, S: stacked score = 100/MIC; settings: S. aureus
Protocol: as §1, §2

Enterobacter cloacae = test: MIC micro broth dilution assay; format: cell-based; parameters: key to stacked score activity, 100/MIC, E: stacked score = 100/MIC; settings: E. cloacae
Protocol: as §1, §2

Enterococcus faecium = test: MIC micro broth dilution assay; format: cell-based; parameters: key to stacked score activity, 100/MIC, E: stacked score = 100/MIC; settings: E. faecium
Protocol: as §1, §2

ESKAPE pathogens = test: MIC micro broth dilution assay, statements and stacked scores over all ESKAPE pathogens; format: cell-based; settings: for pathogens against which the compound showed activity at 4 ug/ml / pathogens against which the compound showed activity at 5 ug/ml / pathogens against which the compound showed activity at 10 ug/ml / pathogens against which the compound showed activity at 25 ug/ml: letters E,S,K,A,P,E = ESKAPE pathogens, — = none; for stacked score Total: stacked score over all ESKAPE pathogens (details in Table S4b); for Total stacked score: sum over all six ESKAPE pathogens
Protocol: as §1
as §2, with “The minimum inhibitory concentration (MIC) for the combinatorial libraries, deconvolved 2157 library, and individual compounds were determined as follows. Broth” for “Broth”

Acinetobacter baumannii = test: MIC micro broth dilution assay; format: cell-based; parameters: key to stacked score activity, 100/MIC, A: stacked score = 100/MIC; settings: A. baumannii
Protocol: as §1, §2

MRSA cells = test: Time kill assay (lysis by OD600, viability by CFU); format: cell-based, Staphylococcus aureus; settings: for cells remaining after exposure (optical density relative to starting values): MRSA, 2.0% SDS, 0.001% benzalkonium chloride, 0.001% benzethonium chloride; for cell recovery (viability, CFU/mL vs no drug control): after the 120 minute assay, agent washed out
Protocol: FIGS. 6A and 6B illustrates that bis-cyclic guanidines are bactericidal but not bacteriolytic. […] Shown is the optical density of cells relative to starting values from three independent experiments. Error bars are shown ±SEM. FIG. 8B is a graph illustrating cell viability of all samples after the 120 min experiment. Compounds were removed by centrifugation and washing of cells, followed by serial dilution and enumeration. Percent recovery was determined by comparison to no drug (ND) controls.
Time kill assays were performed in a 96-well microtiter plate using a BioTek Synergy2 plate reader. To prepare bacterial cultures, stationary phase MRSA cells were inoculated into fresh TSB and grown for 3 hours. After this time, cultures were inoculated into a 96-well microtiter plate at an OD600 of 0.5, followed by the addition of test agent at MIC concentrations. In parallel, 2.0% sodium dodecyl sulfate (SDS), 0.001% benzalkonium chloride, 0.001% benzethonium chloride, and 4 μM lysostaphin were used as positive controls. […] Assays were performed in triplicate over the span of 130 minutes, with OD600 readings taken every 10 minutes.

Compound | stacked score activity, 100/MIC, K (Klebsiella pneumoniae) | stacked score activity, 100/MIC, S (Staphylococcus aureus) | stacked score activity, 100/MIC, E (Enterobacter cloacae) | stacked score activity, 100/MIC, E (Enterococcus faecium) | pathogens against which the compound showed activity at 4 ug/ml (ESKAPE pathogens) | pathogens against which the compound showed activity at 5 ug/ml (ESKAPE pathogens) | pathogens against which the compound showed activity at 10 ug/ml (ESKAPE pathogens) | pathogens against which the compound showed activity at 25 ug/ml (ESKAPE pathogens) | stacked score Total (ESKAPE pathogens) | Total stacked score (ESKAPE pathogens) | stacked score activity, 100/MIC, A (Acinetobacter baumannii) | cells remaining after exposure (optical density relative to starting values) (MRSA cells) | cell recovery (viability, CFU/mL vs no drug control) (MRSA cells) | lysis of MRSA cells (MRSA cells; within 10 minutes of exposure, 4 μM lysostaphin)
CCCCC1CN(CCCCC2CNC(=N)N2CCC23CC4CC(CC(C4)C2)C3)C(=N)N1CCCCC1CCCCC1 (stereo not shown) [Compound 20] | 20 | 20 | 20 | 50 | EAP | ESKAPE | ESKAPE | ESKAPE | 160 | 160 | 25 | – | – | –
CCCCC1CN(CCCCC2CNC(=N)N2CCC23CC4CC(CC(C4)C2)C3)C(=N)N1CCc1ccc(-c2ccccc2)cc1 (stereo not shown) [Compound 21] | 20 | 20 | 20 | 33 | – | ESKAPE | ESKAPE | ESKAPE | 123 | 123 | 25 | – | – | –
CCCCCCCN1C(=N)N(CCCC[C@H]2CNC(=N)N2CCC23CC4CC(CC(C4)C2)C3)C[C@H]1Cc1cccc2ccccc12 [Compound 22] | 20 | 20 | 20 | 25 | EAP | ESKAE | ESKAE | ESKAPE | – | – | 25 | – | – | –
N=C1NC[C@H](CCCCN2C[C@@H](Cc3cccc4ccccc34)N(CCCCC3CCCCC3)C2=N)N1CCC12CC3CC(CC(C3)C1)C2 [Compound 23] | 0 | 25 | 0 | 4 | – | – | – | ESE | – | – | 0 | – | – | –
CCCCCCCN1C(=N)N(CCCC[C@H]2CNC(=N)N2CCC23CC4CC(CC(C4)C2)C3)C[C@@H]1CC1CCCCC1 [Compound 25] | 20 | 20 | 20 | 50 | EAP | ESKAPE | ESKAPE | ESKAPE | – | – | 25 | – | – | –
N=C1NC[C@H](CCCCN2C[C@H](CC3CCCCC3)N(CCCCC3CCCCC3)C2=N)N1CCC12CC3CC(CC(C3)C1)C2 [Compound 26] | 20 | 20 | 20 | 20 | – | ESKAPE | ESKAPE | ESKAPE | – | – | 20 | – | – | –
N=C1NC[C@H](CCCCN2C[C@H](CC3CCCCC3)N(CCc3ccc(-c4ccccc4)cc3)C2=N)N1CCC12CC3CC(CC(C3)C1)C2 [Compound 27] | 20 | 20 | 10 | 10 | – | SKP | ESKPE | ESKAPE | – | – | 4 | – | – | –
CCCCCCCN1C(=N)NC[C@@H]1CCCCN1C[C@H](C(C)CC)N(CCc2cccc(C)c2)C1=N (stereo partly shown) [Compound 32] | 0 | 33 | 0 | 10 | – | – | – | ESAP | – | – | 4 | – | – | –
CCCCCCCN1C(=N)NC[C@@H]1CCCCN1C[C@@H](CCC)N(CCc2cccc(C)c2)C1=N [Compound 35] | 0 | 10 | 0 | 4 | – | – | – | ESAP | – | – | 4 | – | – | –
CCC(C)[C@H]1CN(CCCC[C@H]2CNC(=N)N2CC2CCC(C)CC2)C(=N)N1CCc1cccc(C)c1 (stereo partly shown) [Compound 50] | 0 | 10 | 0 | 10 | – | – | – | ESA | – | – | 4 | – | – | –
CCCCCCCCCCCCOS(=O)(=O)[O-].[Na+] [SDS, sodium dodecyl sulfate] | – | – | – | – | – | – | – | – | – | – | – | 52.2% | 0% | –
CC(C)(C)CC(C)(C)c1ccc(OCCOCC[N+](C)(C)Cc2ccccc2)cc1 [benzethonium chloride] | – | – | – | – | – | – | – | – | – | – | – | 32.63% | 0% | –
C[C@H]1c2cccc(O)c2C(=O)C2=C(O)[C@]3(O)C(=O)C(C(N)=O)=C(O)[C@@H](N(C)C)[C@@H]3[C@@H](O)[C@@H]21 [doxycycline] | – | – | – | – | – | – | – | – | – | – | – | – | 92% | –
benzalkonium chloride [listing 1 of 2 here] | – | – | – | – | – | – | – | – | – | – | – | 28.56% | – | –
benzalkonium chloride [listing 2 of 2 here] | – | – | – | – | – | – | – | – | – | – | – | – | 0% | –
lysostaphin: a S. aureus specific lytic agent, positive control | – | – | – | – | – | – | – | – | – | – | – | – | 0% | > 50%
